Data as given in paper PMC9945734 (BMC Medicine, 2023).
Counter-ions that a name gives are not always drawn. Like-named read-outs stand apart in the source and are kept apart here.

Tested on: PC-3-KQ cells
Experiment: 3D spheroid invasion assay and screening of FDA-approved drugs
Format: cell-based, human
Parameters: activity: dose or concentration left out as unconfirmed
Details: compared to vehicle control
Description: The invasion assay was performed as previously described. […] The plates were then centrifuged at 320 g for 4 min to cluster cells in the bottom of wells and incubated for 3 days. On the fourth day, 40 μL medium was removed from each well, 40 μL of the matrigel-medium mixture was added to each well, and cells were cultured for another 3 days. […] At the end of the incubation, images were taken using a phase contrast microscope (Eclipse Ti2, Nikon, Tokyo, Japan) with 10× object lenses, and the total area of cells and the core sphere area of cells (Fig. 1a) were measured using the Image J software. The invading area was calculated using the following formula: invasion area = total area of cells – core sphere area.
For drug screening, drugs were added to the matrigel-medium mixture when replacing the culture medium on day 4. For the initial round of screening, a final concentration of 10 μM was used for all drugs. Multiple drug concentrations were used for the second round of screening, including 0, 0.001, 0.01, 0.1, 1, and 10 μM. Duplicate wells were repeated for each concentration.

[1] = Homo sapiens, 72 h, 0.01 μM (first column so headed), secondary screening of 87 hit compounds (Table S1), read-out: Invasion rates (%) of each drug’s multiple concentrations
[2] = Homo sapiens, 72 h, 0.01 μM (second column so headed), secondary screening of 87 hit compounds (Table S1), read-out: Invasion rates (%) of each drug’s multiple concentrations
[3] = Homo sapiens, 72 h, 0.1 μM, secondary screening of 87 hit compounds (Table S1), read-out: Invasion rates (%) of each drug’s multiple concentrations
[4] = Homo sapiens, 72 h, 1 μM, secondary screening of 87 hit compounds (Table S1), read-out: Invasion rates (%) of each drug’s multiple concentrations
[5] = Homo sapiens, 72 h, 10 μM, secondary screening of 87 hit compounds (Table S1), read-out: Invasion rates (%) of each drug’s multiple concentrations
[6] = 0.01 μM (first column so headed), secondary screening of 87 hit compounds (Table S1)
[7] = 0.01 μM (second column so headed), secondary screening of 87 hit compounds (Table S1)
[8] = 0.1 μM, secondary screening of 87 hit compounds (Table S1)
[9] = 1 μM, secondary screening of 87 hit compounds (Table S1)
[10] = 10 μM, secondary screening of 87 hit compounds (Table S1)
[11] = Homo sapiens, 72 h, 0.01 μM (first column so headed), third screening of 25 hit compounds (Table S2), read-out: Invasion rates (%) of each drug’s multiple concentrations
[12] = Homo sapiens, 72 h, 0.01 μM (second column so headed), third screening of 25 hit compounds (Table S2), read-out: Invasion rates (%) of each drug’s multiple concentrations
[13] = Homo sapiens, 72 h, 0.1 μM, third screening of 25 hit compounds (Table S2), read-out: Invasion rates (%) of each drug’s multiple concentrations
[14] = Homo sapiens, 72 h, 1 μM, third screening of 25 hit compounds (Table S2), read-out: Invasion rates (%) of each drug’s multiple concentrations
[15] = Homo sapiens, 72 h, 10 μM, third screening of 25 hit compounds (Table S2), read-out: Invasion rates (%) of each drug’s multiple concentrations

Compound | activity at 0.01 µM [1] [%] | activity at 0.01 µM [2] [%] | activity at 0.1 µM [3] [%] | activity at 1 µM [4] [%] | activity at 10 µM [5] [%] | Invasion rates (%) of each drug’s multiple concentrations (μM) [6] [%] | Invasion rates (%) of each drug’s multiple concentrations (μM) [7] [%] | Invasion rates (%) of each drug’s multiple concentrations (μM) [8] [%] | Invasion rates (%) of each drug’s multiple concentrations (μM) [9] [%] | Invasion rates (%) of each drug’s multiple concentrations (μM) [10] [%] | further results
CC[C@@]1(O)C(=O)OCc2c1cc1n(c2=O)Cc2cc3cc(O)ccc3nc2-1 [(S)-10-Hydroxycamptothecin] | – | – | – | – | – | – | – | – | – | – | activity at 0.01 µM (Homo sapiens, 72 h, read-out: Invasion rates (%) of each drug’s multiple concentrations (μM), 0.01 μM (first column so headed), secondary screening of 87 hit compounds (Table S1)): 93.7%; activity at 0.01 µM (Homo sapiens, 72 h, read-out: Invasion rates (%) of each drug’s multiple concentrations (μM), 0.01 μM (second column so headed), secondary screening of 87 hit compounds (Table S1)): 98.2%; activity at 0.1 µM (Homo sapiens, 72 h, read-out: Invasion rates (%) of each drug’s multiple concentrations (μM), 0.1 μM, secondary screening of 87 hit compounds (Table S1)): 85%; activity at 1 µM (Homo sapiens, 72 h, read-out: Invasion rates (%) of each drug’s multiple concentrations (μM), 1 μM, secondary screening of 87 hit compounds (Table S1)): 89.9%; activity at 10 µM (Homo sapiens, 72 h, read-out: Invasion rates (%) of each drug’s multiple concentrations (μM), 10 μM, secondary screening of 87 hit compounds (Table S1)): 85.1%
Cc1ncc([N+](=O)[O-])n1C [Dimetridazole] | 95.7 | 97.8 | 88.8 | 71 | 3.61 | – | – | – | – | – | –
CC(=O)[C@]1(O)Cc2c(O)c3c(c(O)c2[C@@H](O[C@H]2C[C@H](N)[C@H](O)[C@H](C)O2)C1)C(=O)c1ccccc1C3=O.Cl [Idarubicin (hydrochloride)] | – | – | – | – | – | 80.06 | 88.67 | 83.45 | 7.74 | 3.85 | Invasion rates (%) of each drug’s multiple concentrations (μM) (0.01 μM (first column so headed), third screening of 25 hit compounds (Table S2)): 95.32%; Invasion rates (%) of each drug’s multiple concentrations (μM) (0.01 μM (second column so headed), third screening of 25 hit compounds (Table S2)): 98.46%; Invasion rates (%) of each drug’s multiple concentrations (μM) (0.1 μM, third screening of 25 hit compounds (Table S2)): 100.06%; Invasion rates (%) of each drug’s multiple concentrations (μM) (1 μM, third screening of 25 hit compounds (Table S2)): 1.25%; Invasion rates (%) of each drug’s multiple concentrations (μM) (10 μM, third screening of 25 hit compounds (Table S2)): 1.34%
O=C(N/N=C/c1ccc([N+](=O)[O-])o1)c1ccc(O)cc1 [Nifuroxazide] | 68.1 | 86.4 | 50.2 | 9.13 | 2.06 | – | – | – | – | – | activity at 0.01 µM [11]: 97.2%; activity at 0.01 µM [12]: 94.3%; activity at 0.1 µM [13]: 86.5%; activity at 1 µM [14]: 7.31%; activity at 10 µM [15]: 1.51%
COc1cccc2c1C(=O)c1c(O)c3c(c(O)c1C2=O)C[C@@](O)(C(=O)CO)C[C@@H]3O[C@H]1C[C@H](N)[C@H](O[C@@H]2CCCCO2)[C@H](C)O1.Cl [Pirarubicin (Hydrochloride)] | – | – | – | – | – | 87.28 | 91.46 | 86.00 | 81.69 | 10.50 | –
COc1ccc(CN(CCN(C)C)c2ccccn2)cc1 [Mepyramine maleate] | 101 | 98.3 | 99.1 | 97.9 | 48.9 | – | – | – | – | – | –
CS(=O)(=O)c1ccc([C@@H](O)[C@@H](CO)NC(=O)C(Cl)Cl)cc1 [Thiamphenicol] | 90.9 | 92 | 91.7 | 71.5 | 6.21 | – | – | – | – | – | –
Cl.Cl.O=C1c2c(O)ccc(O)c2C(=O)c2c(NCCNCCO)ccc(NCCNCCO)c21 [Mitoxantrone (dihydrochloride)] | – | – | – | – | – | 88.48 | 95.77 | 89.03 | 87.29 | 31.96 | –
CCCCCCCCN=c1ccn(CCCCCCCCCCn2ccc(=NCCCCCCCC)cc2)cc1.Cl.Cl [Octenidine (dihydrochloride)] | – | – | – | – | – | 97.90 | 100.69 | 97.53 | 95.54 | 46.51 | –
CC(C)C[C@H](NC(=O)CNC(=O)c1cc(Cl)ccc1Cl)B1OC(=O)C(CC(=O)O)(CC(=O)O)O1 [Ixazomib citrate] | 69.8 | 81.3 | 26.9 | 1.95 | 1.55 | – | – | – | – | – | activity at 0.01 µM [11]: 100%; activity at 0.01 µM [12]: 96.7%; activity at 0.1 µM [13]: 91.4%; activity at 1 µM [14]: 54.2%; activity at 10 µM [15]: 0.4%
CN(C)[C@@H]1C(=O)C(C(N)=O)=C(O)[C@@]2(O)C(=O)C3=C(O)c4c(O)ccc(Cl)c4[C@@](C)(O)[C@H]3C[C@@H]12.Cl [Chlortetracycline (hydrochloride)] | – | – | – | – | – | 99.62 | 99.02 | 97.93 | 95.42 | 45.01 | –
COc1cc(Nc2c(C#N)cnc3cc(OCCCN4CCN(C)CC4)c(OC)cc23)c(Cl)cc1Cl [Bosutinib] | 90.7 | 97.2 | 87.3 | 69.9 | 10.1 | – | – | – | – | – | –
CC(=O)NC[C@H]1CN(c2ccc(N3CCOCC3)c(F)c2)C(=O)O1 [Linezolid] | 94.4 | 96.6 | 80 | 64.5 | 3.51 | – | – | – | – | – | –
COc1cccc2c1C(=O)c1c(O)c3c(c(O)c1C2=O)C[C@@](O)(C(C)=O)C[C@@H]3O[C@H]1C[C@H](N)[C@H](O)[C@H](C)O1.Cl [Daunorubicin (Hydrochloride)] | – | – | – | – | – | 95.45 | 98.71 | 93.45 | 64.89 | 2.25 | –
NC(=O)N/N=C/c1ccc([N+](=O)[O-])o1 [Nitrofurazone] | 94.8 | – | 80.4 | 70.7 | 6.3 | – | – | – | – | – | activity (Homo sapiens, 72 h, secondary screening of 87 hit compounds (Table S1), read-out: Invasion rates (%) of each drug’s multiple concentrations): 98.8%
C/C(=C\C(=O)OCCCCCCCCC(=O)O)C[C@@H]1OC[C@H](C[C@@H]2O[C@H]2[C@@H](C)[C@H](C)O)[C@@H](O)[C@H]1O [Mupirocin] | 95.2 | 98 | 95.3 | 80 | 5.95 | – | – | – | – | – | –
COc1cccc2c1C(=O)c1c(O)c3c(c(O)c1C2=O)C[C@@](O)(C(=O)CO)C[C@@H]3O[C@H]1C[C@H](N)[C@@H](O)[C@H](C)O1.Cl [Epirubicin (hydrochloride)] | – | – | – | – | – | 94.42 | 95.60 | 93.22 | 88.57 | 4.65 | –
Acetylspiramycin | – | – | – | – | – | 96.71 | 96.46 | 96.77 | 87.68 | 2.37 | –
CCc1c(Cl)c(O)c(Cl)c(O)c1C(=O)O[C@H]1[C@H](O)[C@H](OC)[C@H](OC/C2=C\C=C\C[C@H](O)/C(C)=C/[C@H](CC)[C@@H](O[C@@H]3OC(C)(C)[C@@H](OC(=O)C(C)C)[C@H](O)[C@@H]3O)/C(C)=C/C(C)=C/C[C@@H]([C@@H](C)O)OC2=O)O[C@@H]1C [Fidaxomicin] | 100 | 103 | 99.5 | 96 | 41.5 | – | – | – | – | – | –
